Reference: US12655116B2, “Substituted isophthalic acid diamides” (Bayer Aktiengesellschaft, priority 2020, dated 2026)

Key:
[1] = system: POLCO; experiment: Pre-emergence herbicidal action against POLCO; type: in vivo, Polygonum convolvulus; conditions: Fallopia convolvulus, 504 h, dosage 80 g/ha
Procedure, shortened: (§1)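 Pre-emergence soil-surface spray of formulated compound (WP or EC; 600 to 800 l/ha; 0.2% wetting agent) over seeds sown in sandy loam. After 3 weeks under greenhouse conditions, damage is estimated visually in percent against untreated plants.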

[2] = system: ABUTH; experiment: Pre-emergence herbicidal action against ABUTH; type: in vivo, Abutilon theophrasti; conditions: Abutilon theophrasti, 504 h; for pest or weed control at 80 g/ha: scored visually after 3 weeks vs untreated controls (100% = plants have died, 0% = like control plants); for pest or weed control at 20 g/ha: dosage 20 g/ha, scored visually after 3 weeks vs untreated controls, 100% = plants have died, 0% = like control plants, read-out: Pre-emergence action against ABUTH (herbicidal activity in percent)
Procedure, shortened: as §1

[3] = system: PHBPU; experiment: Post-emergence herbicidal action against PHBPU; type: in vivo, Pharbitis purpurea; conditions: Ipomoea purpurea, 504 h; for pest or weed control at 5 g/ha: dosage 5 g/ha; for pest or weed control at 20 g/ha: dosage 20 g/ha
Procedure, shortened: (§2)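 Greenhouse plants in sandy loam were sprayed at the one-leaf stage, 2 to 3 weeks after sowing, with WP or EC formulations as aqueous suspension or emulsion (600 to 800 l/ha water, 0.2% wetting agent). Visual damage was scored about 3 weeks later versus untreated controls, 0% = like control, 100% = dead.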

[4] = system: VERPE; experiment: Pre-emergence herbicidal action against VERPE; type: in vivo, Veronica persica; conditions: Veronica persica, 504 h; for pest or weed control at 80 g/ha: dosage 80 g/ha
Procedure, shortened: as §1

[5] = system: ABUTH; experiment: Post-emergence herbicidal action against ABUTH; type: in vivo, Abutilon theophrasti; conditions: Abutilon theophrasti, 504 h, visual assessment about 3 weeks after treatment vs untreated controls; for pest or weed control at 5 g/ha: dosage 5 g/ha; for pest or weed control at 20 g/ha: dosage 20 g/ha
Procedure, shortened: as §2

[6] = system: SETVI; experiment: Post-emergence herbicidal action against SETVI; type: in vivo, Setaria viridis; conditions: Setaria viridis, 504 h; for pest or weed control at 5 g/ha: dosage 5 g/ha; for pest or weed control at 20 g/ha: dosage 20 g/ha
Procedure, shortened: as §2

[7] = system: MATIN; experiment: Pre-emergence herbicidal action against MATIN; type: in vivo, Matricaria inodora; conditions: Tripleurospermum inodorum, 504 h; for pest or weed control at 20 g/ha: dosage 20 g/ha; for pest or weed control at 80 g/ha: dosage 80 g/ha
Procedure, shortened: as §1

[8] = system: VIOTR; experiment: Post-emergence herbicidal action against VIOTR; type: in vivo, Viola tricolor; conditions: Viola tricolor, 504 h, 20 g/ha
Procedure, shortened: as §2

[9] = system: LOLRI; experiment: Pre-emergence herbicidal action against LOLRI; type: in vivo, Lolium rigidum; conditions: Lolium rigidum, 504 h, 80 g/ha
Procedure, shortened: as §1

[10] = system: ALOMY; experiment: Post-emergence herbicidal action against ALOMY; type: in vivo, Alopecurus myosuroides; conditions: Alopecurus myosuroides, 504 h, visual assessment about 3 weeks after treatment vs untreated controls; for pest or weed control at 5 g/ha: dosage 5 g/ha; for pest or weed control at 20 g/ha: dosage 20 g/ha
Procedure, shortened: as §2

[11] = system: VIOTR; experiment: Pre-emergence herbicidal action against VIOTR; type: in vivo, Viola tricolor; conditions: Viola tricolor, 504 h; for pest or weed control at 20 g/ha: dosage 20 g/ha; for pest or weed control at 80 g/ha: dosage 80 g/ha
Procedure, shortened: as §1

[12] = system: AMARE; experiment: Pre-emergence herbicidal action against AMARE; type: in vivo, Amaranthus retroflexus; conditions: Amaranthus retroflexus, 504 h, scored visually after 3 weeks vs untreated controls, 100% = plants have died, 0% = like control plants
Procedure, shortened: as §1

[13] = system: ECHCG; experiment: Pre-emergence herbicidal action against ECHCG; type: in vivo, Echinochloa crus-galli; conditions: Echinochloa crus-galli, 504 h, 80 g/ha
Procedure, shortened: as §1

[14] = system: ALOMY; experiment: Pre-emergence herbicidal action against ALOMY; type: in vivo, Alopecurus myosuroides; conditions: Alopecurus myosuroides, 504 h, pre-emergence; for pest or weed control at 80 g/ha: scored visually after 3 weeks vs untreated controls (100% = plants have died, 0% = like control plants); for pest or weed control at 20 g/ha: scored visually after 3 weeks, 100% = plants have died, 0% = like control plants
Procedure, shortened: as §1

[15] = system: AMARE; experiment: Post-emergence herbicidal action against AMARE; type: in vivo, Amaranthus retroflexus; conditions: Amaranthus retroflexus, 504 h, 20 g/ha, visual assessment about 3 weeks after treatment, 100% = plants have died, 0% = like control plants
Procedure, shortened: as §2

[16] = system: AVEFA; experiment: Pre-emergence herbicidal action against AVEFA; type: in vivo, Avena fatua; conditions: Avena fatua, 504 h; 80 g/ha, pre-emergence
Procedure, shortened: as §1

[17] = system: SETVI; experiment: Pre-emergence herbicidal action against SETVI; type: in vivo, Setaria viridis; conditions: Setaria viridis, 504 h; for pest or weed control at 80 g/ha: dosage 80 g/ha
Procedure, shortened: as §1

[18] = system: DIGSA; experiment: Post-emergence herbicidal action against DIGSA; type: in vivo, Digitaria sanguinalis; conditions: Digitaria sanguinalis, 504 h
Procedure, shortened: as §2

[19] = system: DIGSA; experiment: Pre-emergence herbicidal action against DIGSA; type: in vivo, Digitaria sanguinalis; conditions: Digitaria sanguinalis, 504 h
Procedure, shortened: as §1

[20] = system: VERPE; experiment: Post-emergence herbicidal action against VERPE; type: in vivo, Veronica persica; conditions: Veronica persica, 504 h, 20 g/ha
Procedure, shortened: as §2

[21] = system: ECHCG; experiment: Post-emergence herbicidal action against ECHCG; type: in vivo, Echinochloa crus-galli; conditions: Echinochloa crus-galli, 504 h
Procedure, shortened: as §2

[22] = system: PHBPU; experiment: Pre-emergence herbicidal action against PHBPU; type: in vivo, Pharbitis purpurea; conditions: Ipomoea purpurea, 504 h, dosage 80 g/ha
Procedure, shortened: as §1

`CCNC(=O)c1c(Br)ccc(C(=O)Nc2nnnn2CC)c1Br` [Example 2-342] gave a pest or weed control at 80 g/ha [1] of 80%, a pest or weed control at 80 g/ha [2] of 100% and a pest or weed control at 20 g/ha [2] of 100%. The pest or weed control at 5 g/ha [3] was 80%, the pest or weed control at 20 g/ha [3] was 90% and the pest or weed control at 20 g/ha ([4]; dosage 20 g/ha) was 80%. For the same molecule, the pest or weed control at 80 g/ha [4] was 80%, the pest or weed control at 5 g/ha [5] was 80% and the pest or weed control at 20 g/ha [5] was 90%. For the same molecule, the pest or weed control at 5 g/ha [6] was 90%, the pest or weed control at 20 g/ha [6] was 90% and the pest or weed control at 20 g/ha [7] was 90%. The pest or weed control at 80 g/ha [7] was 100%, the pest or weed control at 20 g/ha [8] was 80% and the pest or weed control at 80 g/ha [9] was 80%. For the same molecule, the pest or weed control at 5 g/ha [10] was 90%, the pest or weed control at 20 g/ha [10] was 90% and the pest or weed control at 20 g/ha [11] was 90%. For the same molecule, the pest or weed control at 80 g/ha [11] was 100%, the pest or weed control at 20 g/ha [12] was 90% and the pest or weed control at 80 g/ha [12] was 100%. The pest or weed control at 80 g/ha [13] was 80%, the pest or weed control at 80 g/ha [14] was 100% and the pest or weed control at 20 g/ha [14] was 90%. It also gave a pest or weed control at 20 g/ha [15] of 100%, a pest or weed control at 80 g/ha [16] of 90% and a pest or weed control at 80 g/ha [17] of 100%.

`CCn1nnnc1NC(=O)c1ccc(Br)c(C(=O)NC2CC2)c1Br` [Example 2-343] was tested, and the pest or weed control at 80 g/ha [1] was 90%, the pest or weed control at 80 g/ha [2] was 100% and the pest or weed control at 20 g/ha [5] was 80%. It also gave a pest or weed control at 5 g/ha [6] of 90%, a pest or weed control at 20 g/ha [6] of 90% and a pest or weed control at 20 g/ha [7] of 80%. It also gave a pest or weed control at 80 g/ha [7] of 100%, a pest or weed control at 20 g/ha [8] of 90% and a pest or weed control at 80 g/ha [9] of 90%. For the same molecule, the pest or weed control at 5 g/ha [10] was 80%, the pest or weed control at 20 g/ha [10] was 100% and the pest or weed control at 20 g/ha [11] was 90%. It also gave a pest or weed control at 80 g/ha [11] of 100%, a pest or weed control at 20 g/ha [12] of 100% and a pest or weed control at 80 g/ha [12] of 100%. The pest or weed control at 80 g/ha [13] was 90%, the pest or weed control at 80 g/ha [14] was 90% and the pest or weed control at 20 g/ha [14] was 80%. For the same molecule, the pest or weed control at 20 g/ha [15] was 100%, the pest or weed control at 80 g/ha [16] was 100% and the pest or weed control at 80 g/ha [17] was 100%.

With `Cc1nnc(NC(=O)c2ccc(C(F)(F)F)c(C(=O)NC(C)C)c2C)o1` [Example 6-255] the pest or weed control at 80 g/ha [2] was 100%, the pest or weed control at 20 g/ha [2] was 100% and the pest or weed control at 5 g/ha [3] was 90%. For the same molecule, the pest or weed control at 20 g/ha [3] was 90%, the pest or weed control at 5 g/ha ([18]; 5 g/ha) was 90% and the pest or weed control at 20 g/ha ([18]; 20 g/ha) was 100%. It also gave a pest or weed control at 80 g/ha [4] of 90%, a pest or weed control at 5 g/ha [5] of 90% and a pest or weed control at 20 g/ha [5] of 90%. For the same molecule, the pest or weed control at 5 g/ha [6] was 80%, the pest or weed control at 20 g/ha [6] was 90% and the pest or weed control at 80 g/ha [7] was 100%. The pest or weed control at 20 g/ha ([19]; dosage 20 g/ha) was 100%, the pest or weed control at 80 g/ha ([19]; dosage 80 g/ha) was 100% and the pest or weed control at 20 g/ha [20] was 80%. It also gave a pest or weed control at 5 g/ha ([21]; dosage 5 g/ha) of 90%, a pest or weed control at 20 g/ha ([21]; dosage 20 g/ha) of 100% and a pest or weed control at 80 g/ha [9] of 80%. For the same molecule, the pest or weed control at 20 g/ha [10] was 90%, the pest or weed control at 20 g/ha [11] was 80% and the pest or weed control at 80 g/ha [11] was 90%. It also gave a pest or weed control at 20 g/ha [12] of 100%, a pest or weed control at 80 g/ha [12] of 100% and a pest or weed control at 80 g/ha [13] of 100%. It also gave a pest or weed control at 80 g/ha [14] of 100%, a pest or weed control at 20 g/ha [14] of 90% and a pest or weed control at 20 g/ha [15] of 100%. For the same molecule, the pest or weed control at 80 g/ha [22] was 90%, the pest or weed control at 80 g/ha [16] was 80% and the pest or weed control at 20 g/ha ([17]; dosage 20 g/ha) was 100%. The pest or weed control at 80 g/ha [17] was 100%.
